Data as given in patent publication US20240246964A1 (Arbutus Biopharma Corporation, priority 2021, published 2024).

What was measured:
[1] = molecular target: PD-L1 His protein / PD-1 Fc protein (Homo sapiens (Human), UniProt Q9NZQ7); assay: HTRF Assay (PD-1/PD-L1 interaction); type: binding; conditions: PD-L1 His 6 nM, PD-1 Fc 6 nM
human PD-L1 = human PD-L1 (Homo sapiens (Human), UniProt Q9NZQ7); assay: T cell activation luciferase reporter cell culture system (T Cell Activation Assay); type: cell-based; conditions: luciferase reporter assay; PD-L1 aAPC/CHO-K1 cells with PD-1 effector Jurkat T cells
Sequence of human PD-L1 (Q9NZQ7 19-290): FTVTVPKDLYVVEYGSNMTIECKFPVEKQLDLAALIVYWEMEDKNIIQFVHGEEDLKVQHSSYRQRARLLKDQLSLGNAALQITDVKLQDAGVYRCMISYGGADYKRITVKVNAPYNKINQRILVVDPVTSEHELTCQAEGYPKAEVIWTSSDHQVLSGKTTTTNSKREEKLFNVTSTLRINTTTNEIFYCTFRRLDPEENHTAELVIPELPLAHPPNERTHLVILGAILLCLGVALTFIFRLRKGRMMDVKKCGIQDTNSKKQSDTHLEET

Sequence of PD-L1 His protein / PD-1 Fc protein (Q9NZQ7 19-238): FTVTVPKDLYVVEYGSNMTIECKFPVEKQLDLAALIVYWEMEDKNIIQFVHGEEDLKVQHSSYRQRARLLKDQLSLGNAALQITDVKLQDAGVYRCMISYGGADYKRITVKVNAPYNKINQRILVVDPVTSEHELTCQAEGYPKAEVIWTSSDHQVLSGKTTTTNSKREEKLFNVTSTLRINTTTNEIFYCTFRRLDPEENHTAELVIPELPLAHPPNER

Compound `CCC(=O)N1CCC(NCc2ccc(-c3cccc(-c4ccnc(-c5cc(F)c(CNC6CCN(C(=O)CC)CC6)c(OC)c5)c4Cl)c3Cl)nc2OC)CC1` [Example 331, 1-(4-(((6-(2-Chloro-3-(3-chloro-2-(3-fluoro-5-methoxy-4-(((1-propionylpiperidin-4-yl)amino)methyl)phenyl)pyridin-4-yl)phenyl)-2-methoxypyridin-3-yl)methyl)amino)piperidin-1-yl)propan-1-one] has an IC50 [1] of 23.6 nM and an EC50 (human PD-L1) of 17 nM.
Compound `COc1cc(-c2nccc(-c3cccc(-c4ccc(CN5CC6(CNC(=O)C6)C5)c(OC)n4)c3Cl)c2Cl)ccc1CNC1CCN(C(C)=O)CC1` [Example 332, 2-((6-(3-(2-(4-(((1-acetylpiperidin-4-yl)amino)methyl)-3-methoxyphenyl)-3-chloropyridin-4-yl)-2-chlorophenyl)-2-methoxypyridin-3-yl)methyl)-2,6-diazaspiro[3.4]octan-7-one] has an IC50 [1] of 1.8 nM and an EC50 (human PD-L1) of 12.4 nM.
`COc1cc(-c2nccc(-c3cccc(-c4ccc(CNC5CCN(C(C)=O)CC5)c(OC)n4)c3Cl)c2F)ccc1CNC1CCN(C(C)=O)CC1` [Example 337, 1-(4-(((6-(3-(2-(4-(((1-Acetylpiperidin-4-yl)amino)methyl)-3-methoxyphenyl)-3-fluoropyridin-4-yl)-2-chlorophenyl)-2-methoxypyridin-3-yl)methyl)amino)piperidin-1-yl)ethan-1-one] showed an IC50 [1] of 0.3 nM and an EC50 (human PD-L1) of 62 nM.
In the case of `COc1cc(-c2nccc(-c3cccc(-c4ccc(CNC5CCN(C(C)=O)CC5)c(OC)n4)c3Cl)c2Cl)ccc1CN[C@@H]1COC(=O)C1` [Example 338, (S)-4-((4-(4-(3-(5-(((1-Acetylpiperidin-4-yl)amino)methyl)-6-methoxypyridin-2-yl)-2-chlorophenyl)-3-chloropyridin-2-yl)-2-methoxybenzyl)amino)dihydrofuran-2(3H)-one], the IC50 [1] is reported as 0.17 nM and the EC50 (human PD-L1) is reported as 96.3 nM.
Work on `COC(=O)C[C@@H](CO)NCc1ccc(-c2nccc(-c3cccc(-c4ccc(CNC5CCN(C(C)=O)CC5)c(OC)n4)c3Cl)c2Cl)cc1OC` [Example 339, Methyl (S)-3-((4-(4-(3-(5-(((1-acetylpiperidin-4-yl)amino)methyl)-6-methoxypyridin-2-yl)-2-chlorophenyl)-3-chloropyridin-2-yl)-2-methoxybenzyl)amino)-4-hydroxybutanoate] yielded an IC50 [1] of 0.12 nM and an EC50 (human PD-L1) of 97.6 nM.
`COc1cc(-c2nccc(-c3cccc(-c4ccc(CNC5CCN(C(C)=O)CC5)c(OC)n4)c3Cl)c2Cl)ccc1CN[C@H]1CCOC1=O` [Example 340, (S)-3-((4-(4-(3-(5-(((1-Acetylpiperidin-4-yl)amino)methyl)-6-methoxypyridin-2-yl)-2-chlorophenyl)-3-chloropyridin-2-yl)-2-methoxybenzyl)amino)dihydrofuran-2(3H)-one] showed an IC50 [1] of 0.1 nM and an EC50 (human PD-L1) of 523 nM.
With `COc1cc(-c2nccc(-c3cccc(-c4ccc(CN5CCC(NC(C)=O)CC5)c(OC)n4)c3Cl)c2Cl)ccc1CNC1CCN(C(C)=O)CC1` [Example 341, N-(1-((6-(3-(2-(4-(((1-acetylpiperidin-4-yl)amino)methyl)-3-methoxyphenyl)-3-chloropyridin-4-yl)-2-chlorophenyl)-2-methoxypyridin-3-yl)methyl)piperidin-4-yl)acetamide] the IC50 [1] was 1.14 nM and the EC50 (human PD-L1) was 22.6 nM.
In the case of `COc1cc(-c2nccc(-c3cccc(-c4ccc(CNC5CCN(C(C)=O)CC5)c(OC)n4)c3Cl)c2Cl)ccc1CN[C@H](CO)CC(=O)O` [Example 342, (S)-3-((4-(4-(3-(5-(((1-Acetylpiperidin-4-yl)amino)methyl)-6-methoxypyridin-2-yl)-2-chlorophenyl)-3-chloropyridin-2-yl)-2-methoxybenzyl)amino)-4-hydroxybutanoic acid], the IC50 [1] is reported as 0.08 nM and the EC50 (human PD-L1) is reported as 339 nM.
With `COc1cc(-c2nccc(-c3cccc(-c4ccc(CNC5CCN(C(C)=O)CC5)c(OC)n4)c3Cl)c2Cl)ccc1CN[C@@H](CCO)C(=O)O` [Example 343, (4-(4-(3-(5-(((1-Acetylpiperidin-4-yl)amino)methyl)-6-methoxypyridin-2-yl)-2-chlorophenyl)-3-chloropyridin-2-yl)-2-methoxybenzyl)-L-homoserine] the IC50 [1] was 0.09 nM and the EC50 (human PD-L1) was 248 nM.
Compound `CCC(=O)N1CCC(NCc2ccc(-c3nccc(-c4cccc(-c5ccc(CNC6CCN(C(=O)CC)CC6)c(OC)n5)c4Cl)c3Cl)cc2OC)CC1` [Example 344, 1-(4-(((6-(2-Chloro-3-(3-chloro-2-(3-methoxy-4-(((1-propionylpiperidin-4-yl)amino)methyl)phenyl)pyridin-4-yl)phenyl)-2-methoxypyridin-3-yl)methyl)amino)piperidin-1-yl)propan-1-one] has an IC50 [1] of 6.41 nM and an EC50 (human PD-L1) of 14.9 nM.
Compound `COc1cc(-c2nccc(-c3cccc(-c4ccc(CN5CCC6(CC5)CC(=O)N6)c(OC)n4)c3Cl)c2Cl)ccc1CN1CCC2(CC1)CC(=O)N2` [Example 353, 7-((6-(2-Chloro-3-(3-chloro-2-(3-methoxy-4-((2-oxo-1,7-diazaspiro[3.5]nonan-7-yl)methyl)phenyl)pyridin-4-yl)phenyl)-2-methoxypyridin-3-yl)methyl)-1,7-diazaspiro[3.5]nonan-2-one] has an IC50 [1] of 0.16 nM and an EC50 (human PD-L1) of at least 10000 nM.
`COc1cc(-c2nccc(-c3cccc(-c4ccc(CN5CCC(NC(C)=O)CC5)c(OC)n4)c3Cl)c2Cl)ccc1CN1CC2(CNC(=O)C2)C1` [Example 355, N-(1-((6-(2-Chloro-3-(3-chloro-2-(3-methoxy-4-((7-oxo-2,6-diazaspiro[3.4]octan-2-yl)methyl)phenyl)pyridin-4-yl)phenyl)-2-methoxypyridin-3-yl)methyl)piperidin-4-yl)acetamide] showed an IC50 [1] of 1.27 nM and an EC50 (human PD-L1) of 28.7 nM.
For `COc1cc(-c2nccc(-c3cccc(-c4ccc(CNCCCNC(C)=O)c(OC)n4)c3Cl)c2Cl)ccc1CNCCCNC(C)=O` [Example 358, N-(3-(((6-(3-(2-(4-(((3-Acetamidopropyl)amino)methyl)-3-methoxyphenyl)-3-chloropyridin-4-yl)-2-chlorophenyl)-2-methoxypyridin-3-yl)methyl)amino)propyl) acetamide], the IC50 [1] was 0.12 nM and the EC50 (human PD-L1) was 64.4 nM.
With `COc1cc(-c2nccc(-c3cccc(-c4ccc(CNC5CCN(C(C)=O)CC5)c(OC)n4)c3Cl)c2Cl)ccc1CN1CC2(COC2)C1` [Example 380, 1-(4-(((6-(3-(2-(4-((2-Oxa-6-azaspiro[3.3]heptan-6-yl)methyl)-3-methoxyphenyl)-3-chloropyridin-4-yl)-2-chlorophenyl)-2-methoxypyridin-3-yl)methyl)amino)piperidin-1-yl)ethan-1-one] the IC50 [1] was 1.43 nM and the EC50 (human PD-L1) was 20.5 nM.
Work on `COc1cc(-c2nccc(-c3cccc(-c4ccc(CNC5CCN(C(C)=O)CC5)c(OC)n4)c3Cl)c2Cl)ccc1CNC1CC(C)(C)C1` [Example 381, 1-(4-(((6-(2-Chloro-3-(3-chloro-2-(4-(((3,3-dimethylcyclobutyl)amino)methyl)-3-methoxyphenyl)pyridin-4-yl)phenyl)-2-methoxypyridin-3-yl)methyl)amino)piperidin-1-yl)ethan-1-one] yielded an IC50 [1] of 0.184 nM and an EC50 (human PD-L1) of 53.3 nM.
`COc1cc(-c2nccc(-c3cccc(-c4ccc(CNC5CCN(C(C)=O)CC5)c(OC)n4)c3Cl)c2Cl)ccc1CNC1CCN(S(C)(=O)=O)CC1` [Example 383, 1-(4-(((6-(2-Chloro-3-(3-chloro-2-(3-methoxy-4-(((1-(methylsulfonyl)piperidin-4-yl)amino)methyl)phenyl)pyridin-4-yl)phenyl)-2-methoxypyridin-3-yl)methyl)amino)piperidin-1-yl)ethan-1-one] gave an IC50 [1] of 0.998 nM and an EC50 (human PD-L1) of 14.4 nM.
`COc1cc(-c2nccc(-c3cccc(-c4ccc(CN5CC(C)(O)C5)c(OC)n4)c3Cl)c2Cl)ccc1CN1CC(C)(O)C1` [Example 396, 1-((6-(2-Chloro-3-(3-chloro-2-(4-((3-hydroxy-3-methylazetidin-1-yl)methyl)-3-methoxyphenyl)pyridin-4-yl)phenyl)-2-methoxypyridin-3-yl)methyl)-3-methylazetidin-3-ol] showed an IC50 [1] of 1.38 nM and an EC50 (human PD-L1) of 15.3 nM.
For `COCC(=O)N1CCC(NCc2ccc(-c3nccc(-c4cccc(-c5ccc(CNC6CCN(C(=O)COC)CC6)c(OC)n5)c4Cl)c3Cl)cc2OC)CC1` [Example 397, 1-(4-(((6-(2-Chloro-3-(3-chloro-2-(3-methoxy-4-(((1-(2-methoxyacetyl)piperidin-4-yl)amino)methyl)phenyl)pyridin-4-yl)phenyl)-2-methoxypyridin-3-yl)methyl)amino)piperidin-1-yl)-2-methoxyethan-1-one], the IC50 [1] was 0.128 nM and the EC50 (human PD-L1) was 5.71 nM.
In the case of `COc1cc(-c2nccc(-c3cccc(-c4ccc(CN5CC6(CCC(=O)N6)C5)c(OC)n4)c3Cl)c2Cl)ccc1CN1CC2(CCC(=O)N2)C1` [Example 398, 2-((6-(2-Chloro-3-(3-chloro-2-(3-methoxy-4-((6-oxo-2,5-diazaspiro[3.4]octan-2-yl)methyl)phenyl)pyridin-4-yl)phenyl)-2-methoxypyridin-3-yl)methyl)-2,5-diazaspiro[3.4]octan-6-one], the IC50 [1] is reported as 0.278 nM and the EC50 (human PD-L1) is reported as 8.54 nM.
`COc1cc(-c2nccc(-c3cccc(-c4ccc(CNC5CCN(C(C)=O)CC5)c(OC)n4)c3C)c2Cl)ccc1CNC1CCN(C(C)=O)CC1` [Example 399, 1-(4-(((6-(3-(2-(4-(((1-acetylpiperidin-4-yl)amino)methyl)-3-methoxyphenyl)-3-chloropyridin-4-yl)-2-methylphenyl)-2-methoxypyridin-3-yl)methyl)amino)piperidin-1-yl)ethan-1-one] showed an IC50 [1] of 0.185 nM and an EC50 (human PD-L1) of 77.7 nM.
`COc1cc(-c2nccc(-c3cccc(-c4ccc(CN5CC6(CNC(=O)C6)C5)c(OC)n4)c3Cl)c2Cl)ccc1CN1CCC(NC(C)=O)CC1` [Example 400, N-(1-(4-(3-chloro-4-(2-chloro-3-(6-methoxy-5-((7-oxo-2,6-diazaspiro[3.4]-octan-2-yl)methyl)pyridin-2-yl)-phenyl)pyridin-2-yl)-2-methoxybenzyl)piperidin-4-yl)acetamide] was tested, and the IC50 [1] was 0.272 nM and the EC50 (human PD-L1) was 16.4 nM.
